Measured values from patent US5563125A, “5'-deoxy-5'-(substituted)alkylthioribose compounds and their pharmaceutical compositions” (priority 1992, dated 1996).
Like-named read-outs stand apart in the source and are kept apart here.

Legend:
[1] = test system: L1210 cells (MTA phosphorylase-deficient); assay: Growth inhibition of L1210 cells; assay type: cell-based, mouse; settings: L1210, 48 h
Procedure: (§1) L1210, L5178Y and MOLT-4 cell lines were grown in RPMI 1640 and 10% Nu Serum (Collaborative Research Inc., Lexington, Mass.) and CCRF-CEM cells were grown in 10% Horse Serum (Gibco Laboratories, Grand Island, N.Y.) and maintained as previously described for suspension cultures by Pera et al. in Cancer Res. 46, 1148, 1986. Cell cultures (0.3×10^5 cells/ml) were treated with each compound at 0.1 to 1000 μM to determine the concentration that inhibited growth by 50% (IC50) at 48 hr for the L1210 and L5178Y cells and at 96 hr for the CCRF-CEM and MOLT-4 cells. The incubation times allowed approximately 4 cell doublings in each cell line. All compounds were freshly prepared prior to treatment by dissolving in DMSO and diluting in serum-free media. Cells were counted by electron particle counting (Model XF' Coulter Counter; Coulter Electronics, Hialeah, Fla.).
(§2) For each compound, the concentrations required to inhibit cell growth by 50% (IC50 values) are shown in Table 7 for two murine leukemic cell lines, L1210 and L5178Y [MTA phosphorylase-deficient and MTA phosphorylase-containing, respectively] and two human leukemic cell lines, CCRF-CEM and MOLT-4 [MTA phosphorylase-deficient and MTA phosphorylase-containing, respectively]. ETA, MFETA, HETA and PTA had lower IC50 values in the L5178Y cells than in the L1210 cells. […] This differential is consistent with the possibility that, in L5178Y cells, MFETA is cleaved by MTA phosphorylase to the growth inhibitory metabolite, 5-monofluoroethylthioribose-1-phosphate (MFETR-1-P).

[2] = target: T1, T. b. brucei MTA phosphorylase (Trypanosoma brucei, UniProt Q57XS4); assay: T. b. brucei MTA phosphorylase substrate assay; assay type: biochemical; settings: for Percent Control Activity: relative to MTA
T1 construct: MTA or analogs as substrates
T1 sequence (Q57XS4 entry or part of it): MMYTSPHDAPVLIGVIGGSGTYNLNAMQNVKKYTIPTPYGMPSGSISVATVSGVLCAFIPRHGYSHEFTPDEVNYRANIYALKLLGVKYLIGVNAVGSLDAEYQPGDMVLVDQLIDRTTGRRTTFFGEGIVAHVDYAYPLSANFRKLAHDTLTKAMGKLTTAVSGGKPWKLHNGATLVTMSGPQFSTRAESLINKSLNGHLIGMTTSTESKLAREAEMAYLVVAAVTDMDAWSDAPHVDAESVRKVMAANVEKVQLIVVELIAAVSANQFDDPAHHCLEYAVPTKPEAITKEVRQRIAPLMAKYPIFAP
Procedure: ^a MTA phosphorylase was assayed according to Ghoda et al., using 200
μM MTA (saturating) or analogs as substrates. Specific activities of
the dialyzed enzyme preparations were with 50 mM PO4, 104.97 n
moles/mg protein/h; without PO4, 28.27 n moles/mg protein/h. Results
are expressed as percent activity compared to as substrate with and
without PO4, respectively.

[3] = test system: CCRF-CEM cells (MTA phosphorylase-deficient); assay: Growth inhibition of CCRF-CEM cells; assay type: cell-based, human; settings: 96 h
Procedure: as §1, §2

[4] = target: T2, Mouse Liver MTA Phosphorylase (Mus musculus, UniProt Q9CQ65); assay: Mouse liver MTA phosphorylase substrate/inhibitor assay; assay type: biochemical; settings: for Substrate (% Control): substrate activity relative to MTA
T2 sequence (Q9CQ65 1-283): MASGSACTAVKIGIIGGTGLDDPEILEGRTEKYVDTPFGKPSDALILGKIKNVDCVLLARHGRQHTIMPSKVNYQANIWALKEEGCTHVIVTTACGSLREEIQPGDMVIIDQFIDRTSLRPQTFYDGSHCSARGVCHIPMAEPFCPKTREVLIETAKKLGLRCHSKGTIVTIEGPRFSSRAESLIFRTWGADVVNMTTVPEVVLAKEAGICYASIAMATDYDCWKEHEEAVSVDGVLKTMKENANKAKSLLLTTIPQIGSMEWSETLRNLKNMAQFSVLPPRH
Procedure: ^a MTA phosphorylase activity was assayed as described in Sufrin et

[5] = test system: MOLT-4 cells (MTA phosphorylase-containing); assay: Growth inhibition of MOLT-4 cells; assay type: cell-based, human; settings: MOLT-4, 96 h
Procedure: as §1, §2

[6] = test system: T. b. brucei procyclic trypanosomes (Lab 110 EATRO strain); assay: In vitro antitrypanosomal activity, procyclic trypanosomes in T2 medium; assay type: cell-based, Trypanosoma brucei brucei; settings: 3-5 days
Procedure: The antitrypanosomal effects of HETA and other nucleosides were examined in the Lab 110 EATRO strain of T. b. brucei in culture.
Cells were cultured as described in Bacchi et al. Exp. Parasitol. 68, 392, 1989. Cells were then grown in the presence of the compounds for 3-5 days. Drugs were filtered, sterilized and added aseptically. Control cells achieved a maximum density of 1.5-3.5×10^7 /ml. Hemocytometer counts were made daily and the results were expressed as a percent of control growth. IC50 plots were obtained by graphing log (drug) vs. percent growth inhibition.
Trypanocidal Activity of MTA and MTR Analogs
against T. b. brucei procyclic trypanosomes in T2 medium.

[7] = test system: L5178Y cells (MTA phosphorylase-containing); assay: Growth inhibition of L5178Y cells; assay type: cell-based, mouse; settings: 48 h
Procedure: as §1, §2

[8] = test system: Trichomonas vaginalis ATCC 3001; assay: Minimum lethal concentration against Trichomonas vaginalis, multiwell plate assay, ATCC 3001; assay type: cell-based
From the text: (§3) Preliminary in vitro evaluation of HETA and other compounds against isolates of Trichomonas vaginalis was done.
(§4) Values are expressed as μg of compound per ml of medium required to inhibit growth and motility of the parasite in a multiwell plate assay as described by Meingassner, Mieth, Czok, Lindmark and Muller (1978) Antimicrob. Agents and Chemother. 13, 1-3. The present drug used for treatment--metronidazole (Flagyl®) is included for comparison. Strain ATCC 50143 (CDC-85) was refractory to chemotherapeutic dose levels of metronidazole. (ND=not done).

[9] = test system: Trichomonas vaginalis ATCC 50143 (CDC-85), metronidazole-resistant; assay: Minimum lethal concentration against Trichomonas vaginalis, multiwell plate assay, ATCC 50143 (CDC-85); assay type: cell-based
From the text: as §3, §4

[10] = test system: KETRI 243 T. b. rhodesiense clinical isolate; assay: Bloodstream forms of African trypanosomes grown in vitro, KETRI 243; assay type: cell-based; settings: day 4
Procedure: (§5) Cultures were initiated directly from infected mouse blood into Falcon 24 well plates containing 1 ml of Iscoves modified Dulbecco's medium plus 20% horse serum, 2 mM pyruvate, 2 mM glutamine, and 0.2 uM mercaptoethanol. Initial cell counts were 2.5-5.0×10^5 /ml. Plates were incubated at 37 C. in 5 percent CO2. HETA was dissolved in the medium and filter sterilized. One half the volume of each well was replaced with fresh medium each day.
(§6) Cell counts were made daily. Data are given as percent inhibition of growth as determined by hemocytometer counts on day 4 as compared to control cultures without drug.
(§7) In Table 2, EATRO 110 is a strain of T. b. brucei; and KETRI 2002, and KETRI 243 are T. b. rhodesiense clinical isolates.

[11] = test system: EATRO 110 strain of T. b. brucei; assay: Bloodstream forms of African trypanosomes grown in vitro, EATRO 110; assay type: cell-based; settings: day 4
Procedure: as §5, §6, §7

[12] = test system: P. falciparum; assay: In vitro antimalarial activity of HETA; assay type: cell-based, Plasmodium falciparum
[13] = test system: KETRI 2002 T. b. rhodesiense clinical isolate; assay: Bloodstream forms of African trypanosomes grown in vitro, KETRI 2002; assay type: cell-based; settings: day 4
Procedure: as §5, §6, §7

[14] = test system: T. b. brucei LAB 110 EATRO; assay: In vivo antitrypanosomal activity, LAB EATRO mouse infection model; settings: miniosmotic pump
Procedure: ^a Animals were treated with surgically implanted miniosmotic pumps
loaded as per manufacturers instructions with MTA, HETA or MFETA suspende

Nc1ncnc2c1ncn2[C@@H]1O[C@H](CSCCBr)[C@@H](O)[C@H]1O [BETA, 5'-deoxy-5'-(bromoethylthio)adenosine]
IC50 [1]: 150 µM | Percent Control Activity ([2]; +50 mM PO4, 200 μM substrate): 88.8% | Percent Control Activity ([2]; No PO4, 200 μM substrate): 120% | IC50 [3]: 250 ± 50 µM | Ki [4]: 6.5 µM | Substrate (% Control) [4]: 38 % Control | IC50 [5]: 25 ± 10 µM | IC50 [6]: 0.5 µM | IC50 [7]: 150 µM

Nc1ncnc2c1ncn2[C@@H]1O[C@H](CSCCCl)[C@@H](O)[C@H]1O [CETA, 5'-deoxy-5'-(chloroethylthio)adenosine]
IC50 [1]: 250 µM | Percent Control Activity ([2]; +50 mM PO4, 200 μM substrate): 60% | Percent Control Activity ([2]; No PO4, 200 μM substrate): 94.4% | Minimum lethal concentration (MLC) ([8]; ATCC 3001, 24 h): 93.7 µg/mL | Minimum lethal concentration (MLC) ([8]; ATCC 3001, 48 h): 23.4 µg/mL | IC50 [3]: 240 ± 90 µM | Ki [4]: 12 µM | Substrate (% Control) [4]: 35 % Control | Minimum lethal concentration (MLC) ([9]; ATCC 50143, 24 h): 187.5 µg/mL | Minimum lethal concentration (MLC) ([9]; ATCC 50143, 48 h): 11.7 µg/mL | activity against metronidazole(Flagyl)-resistant strain CDC-85 ([9]; CDC-85 strain, preliminary in vitro evaluation): active | IC50 [5]: 30 ± 20 µM | IC50 [6]: 2.5 µM | IC50 [7]: 200 µM

Nc1ncnc2c1ncn2[C@@H]1O[C@H](CSCCO)[C@@H](O)[C@H]1O [HETA, 5'-deoxy-5'-(hydroxyethylthio)adenosine]
IC50 ([1]; Mus musculus): 1000 µM | Percent Control Activity ([2]; +50 mM PO4, 200 μM substrate): 85% | Percent Control Activity ([2]; No PO4, 200 μM substrate): 100% | metabolism by T. b. brucei MTA phosphorylase ([2]; compared with MTA): as effectively as MTA itself | activity against the C1-NIH strain ([8]; C1-NIH strain, preliminary in vitro evaluation): displays activity | IC50 ([3]; Homo sapiens): 100 µM | percent inhibition of growth ([10]; 0.1 um HETA): 0% | percent inhibition of growth ([10]; 0.5 um HETA): 0% | percent inhibition of growth ([10]; 1.0 um HETA): 0% | percent inhibition of growth ([10]; 2.25 um HETA): 0% | percent inhibition of growth ([11]; 0.1 um HETA): 0% | percent inhibition of growth ([11]; 0.5 um HETA): 44% | percent inhibition of growth ([11]; 1.0 um HETA): 59% | percent inhibition of growth ([11]; 2.25 um HETA): 70% | Ki ([4]; mouse liver MTA phosphorylase, read-out: K1): 26 µM | Substrate (% Control) [4]: 34 % Control | growth of the microorganism inhibited in an in vitro screen ([12]; P. falciparum in vitro screen): inhibited | IC50 ([12]; Plasmodium falciparum, P. falciparum in vitro): ~22 µM | IC50 ([5]; Homo sapiens): 40 µM | percent inhibition of growth ([13]; 0.1 um HETA): 0% | percent inhibition of growth ([13]; 0.5 um HETA): 0% | percent inhibition of growth ([13]; 1.0 um HETA): 15% | percent inhibition of growth ([13]; 2.25 um HETA): 60% | % Cured ([14]; 25 mg/kg/day, 7 days): 73% | MSD (mean survival in days of animals dying of infection) ([14]; 25 mg/kg/day, 7 days): 15.3 days | Number Cured Total ([14]; 25 mg/kg/day, 7 days): 11/15 | % Cured ([14]; 50 mg/kg/day, 7 days): 68% | MSD (mean survival in days of animals dying of infection) ([14]; 50 mg/kg/day, 7 days): 14.5 days | Number Cured Total ([14]; 50 mg/kg/day, 7 days): 17/25 | % Cured ([14]; 50 mg/kg/day, 14 days): 60% | MSD (mean survival in days of animals dying of infection) ([14]; 50 mg/kg/day, 14 days): 18.1 days | Number Cured Total ([14]; 50 mg/kg/day, 14 days): 9/15 | % Cured ([14]; 100 mg/kg/day, 7 days): 87% | MSD (mean survival in days of animals dying of infection) ([14]; 100 mg/kg/day, 7 days): 26.0 days | Number Cured Total ([14]; 100 mg/kg/day, 7 days): 13/15 | % Cured ([14]; 150 mg/kg/day, 7 days): 90% | MSD (mean survival in days of animals dying of infection) ([14]; 150 mg/kg/day, 7 days): 14.5 days | Number Cured Total ([14]; 150 mg/kg/day, 7 days): 18/20 | IC50 ([6]; Trypanosoma brucei): 0.5 µM | IC50 ([7]; Mus musculus): 500 µM

Nc1ncnc2c1ncn2[C@@H]1O[C@H](CSCCCO)[C@@H](O)[C@H]1O [HPTA]
Percent Control Activity ([2]; +50 mM PO4, 200 μM substrate): 72.5% | Percent Control Activity ([2]; No PO4, 200 μM substrate): 101.8% | IC50 ([6]; Trypanosoma brucei): 170 µM

CCCSC[C@H]1O[C@@H](n2cnc3c(N)ncnc32)[C@H](O)[C@@H]1O [PTA, reference compound]
IC50 ([1]; Mus musculus): 1000 µM | Percent Control Activity ([2]; +50 mM PO4, 200 μM substrate): 57.5% | Percent Control Activity ([2]; No PO4, 200 μM substrate): 96.4% | IC50 ([3]; Homo sapiens): 160 µM | Substrate (% Control) [4]: 102 % Control | IC50 ([5]; Homo sapiens): 45 µM | IC50 ([6]; Trypanosoma brucei): 46 µM | IC50 ([7]; Mus musculus): 500 µM
